Experimental data from patent US7087642B2 (priority 1999, dated 2006).
Like-named read-outs stand apart in the source and are kept apart here.

Columns and labels:
[1] = system: human PBMC T cells; test: cells; type: cell-based; details: Homo sapiens, 72 h, read-out: T-cells (IC50)
[2] = system: human PBMC B cells; test: cells; type: cell-based; details: read-out: B-cells (IC50)
[3] = target: IMPDH human type II (Homo sapiens, UniProt P12268); test: biochemical

SMILES | IC50 [1] [µM] | IC50 ([2]; Homo sapiens, 72 h) [µM] | Ki ([3]; read-out: Ki) [µM] | also measured
CCC(C[N+]1([O-])CCS(=O)(=O)CC1)OC(=O)NCc1cccc(NC(=O)Nc2ccc(-c3cnco3)c(OC)c2)c1 (stereo not drawn) [Compound 91] | > 1 | > 1 | < 0.01 | –
CC[C@@H](CC#N)OC(=O)NCc1cccc(NC(=O)Nc2ccc(-c3cnco3)c(OC)c2)c1 [Compound 82] | 0.1 to 1 | 0.1 to 1 | > 0.05 | –
CCC(CNC(=O)OC(C)(C)C)OC(=O)NCc1cccc(NC(=O)Nc2ccc(-c3cnco3)c(OC)c2)c1 (stereo not drawn) [Compound 160] | – | – | > 0.05 | –
COc1cc(NC(=O)Nc2cccc(CNC(=O)O[C@H](CO)CC#N)c2)ccc1-c1cnco1 [Compound 63] | 0.1 to 1 | 0.1 to 1 | < 0.01 | –
COc1cc(NC(=O)Nc2cccc(CNC(=O)OC(CCN3CCCC3)c3ccccc3)c2)ccc1-c1cnco1 (stereo not drawn) [Compound 56] | – | 0.1 to 1 | < 0.01 | –
CCN(CC)C[C@@H](OC(=O)NCc1cccc(NC(=O)Nc2ccc(-c3cnco3)c(OC)c2)c1)C1CCCCC1 [Compound 157] | – | – | 0.01 to 0.05 | –
COc1cc(NC(=O)Nc2cccc(CNC(=O)OC(CC#N)C(F)(F)F)c2)ccc1-c1cnco1 (stereo not drawn) [Compound 79] | 0.1 to 1 | 0.1 to 1 | < 0.01 | –
COc1cc(NC(=O)Nc2cccc([C@H](C)NC(=O)O[C@@H]3CCOC3)c2)ccc1C#N [Compound 184] | – | – | 0.01 to 0.05 | –
CCN(CC)CC(OC(=O)NCc1cccc(NC(=O)Nc2ccc(-c3cnco3)c(OC)c2)c1)c1nccs1 (stereo not drawn) [Compound 142] | – | – | 0.01 to 0.05 | –
CCC(CC#N)OC(=O)N[C@@H](C)c1cccc(NC(=O)Nc2ccc(C#N)c(Cl)c2)c1 (stereo partly drawn) [Compound 183] | 0.1 to 1 | 0.1 to 1 | – | –
CCC(COC(N)=O)OC(=O)NCc1cccc(NC(=O)Nc2ccc(-c3cnco3)c(OC)c2)c1 (stereo not drawn) [Compound 159] | 0.1 to 1 | 0.1 to 1 | – | –
COc1cc(NC(=O)Nc2cccc(CNC(=O)O[C@@H]3CCC[C@H]3N3CCOCC3)c2)ccc1-c1cnco1 [Compound 86] | – | – | 0.01 to 0.05 | –
COc1cc(NC(=O)Nc2cccc(CNC(=O)OC(CC#N)CN(C)C)c2)ccc1-c1cnco1 (stereo not drawn) [Compound 17] | > 1 | > 1 | – | –
CC[C@H](COC(=O)CNC(=O)OC(C)(C)C)OC(=O)NCc1cccc(NC(=O)Nc2ccc(-c3cnco3)c(OC)c2)c1 [Compound 93] | – | – | 0.01 to 0.05 | –
CC[C@H](COC(=O)CN)OC(=O)NCc1cccc(NC(=O)Nc2ccc(-c3cnco3)c(OC)c2)c1 [Compound 95] | – | – | 0.01 to 0.05 | –
COc1cc(NC(=O)Nc2cccc(CNC(=O)OC(CN3CC[S+]([O-])CC3)c3ccccc3)c2)ccc1-c1cnco1 (stereo not drawn) [Compound 106] | < 0.1 | < 0.1 | – | –

SMILES | IC50 [1] [µM] | IC50 ([2]; Homo sapiens, 72 h) [µM] | Ki ([3]; read-out: Ki) [µM] | also measured
CCCN(CC)C[C@@H](OC(=O)NCc1cccc(NC(=O)Nc2ccc(-c3cnco3)c(OC)c2)c1)c1ccccc1 [Compound 111] | – | – | > 0.05 | –
CC[C@H](COCc1ccccc1)OC(=O)NCc1cccc(NC(=O)Nc2ccc(-c3cnco3)c(OC)c2)c1 [Compound 54] | – | – | < 0.01 | –
CCCN(CC(OC(=O)NCc1cccc(NC(=O)Nc2ccc(-c3cnco3)c(OC)c2)c1)c1ccccc1)C1CC1 (stereo not drawn) [Compound 136] | – | – | > 0.05 | –
COc1cc(NC(=O)Nc2cccc(CNC(=O)O[C@H](CC#N)CN(C)C)c2)ccc1-c1cnco1 [Compound 17] | – | – | < 0.01 | –
COc1cc(NC(=O)Nc2cccc(CNC(=O)O[C@H](CN3CC[S+]([O-])CC3)c3ccccc3)c2)ccc1-c1cnco1 [Compound 106] | – | – | > 0.05 | –
CCN(CC)CCC(OC(=O)NCc1cccc(NC(=O)Nc2ccc(-c3cnco3)c(OC)c2)c1)c1ccccc1 (stereo not drawn) [Compound 140] | – | – | – | Ki [3]: > 0.05 µM
CCC(CC#N)OC(=O)N[C@@H](C)c1cccc(NC(=O)Nc2ccc(C#N)c(OC)c2)c1 (stereo partly drawn) [Compound 168] | 0.1 to 1 | 0.1 to 1 | – | –
COc1cc(NC(=O)Nc2cccc(CNC(=O)O[C@H](CO)CCO)c2)ccc1-c1cnco1 [Compound 141] | – | – | 0.01 to 0.05 | –
CC[C@H](CO)OC(=O)N[C@@H](C)c1cccc(NC(=O)Nc2ccc(-c3cnco3)c(OC)c2)c1 [Compound 164] | – | – | 0.01 to 0.05 | –
CCC(CC#N)OC(=O)N[C@H](C)c1cccc(NC(=O)Nc2ccc(C#N)c(OC)c2)c1 (stereo partly drawn) [Compound 172] | > 1 | – | – | IC50 [2]: > 1 µM
CC[C@@H](CO)OC(=O)N[C@@H](C)c1cccc(NC(=O)Nc2ccc(C#N)c(OC)c2)c1 [Compound 176] | – | – | > 0.05 | –
COc1cc(NC(=O)Nc2cccc(CNC(=O)OC3CCC[C@H]3N3CCOCC3)c2)ccc1-c1cnco1 (stereo partly drawn) [Compound 86] | > 1 | > 1 | – | –
CCN(C)CCC(OC(=O)NCc1cccc(NC(=O)Nc2ccc(-c3cnco3)c(OC)c2)c1)c1ccccc1 (stereo not drawn) [Compound 139] | – | – | – | Ki [3]: > 0.05 µM
CC[C@H](CO)OC(=O)N[C@H](C)c1cccc(NC(=O)Nc2ccc(-c3cnco3)c(OC)c2)c1 [Compound 165] | – | – | > 0.05 | –
CCN(CC1CC1)C[C@@H](OC(=O)NCc1cccc(NC(=O)Nc2ccc(-c3cnco3)c(OC)c2)c1)c1ccccc1 [Compound 134] | – | – | 0.01 to 0.05 | –
CC[C@@H](CC#N)OC(=O)N[C@@H](C)c1cccc(NC(=O)Nc2ccc(C#N)c(OC)c2)c1 [Compound 168] | – | – | – | Ki [3]: 0.01 to 0.05 µM
